Columns and labels:
Type in all cases: functional
[1] = test system: DU-145; experiment: Growth inhibition of Homo sapiens (human) DU145 cells at 10 uM after 48 hr by SRB assay; settings: DU-145, 48 h, read-out: GI
[2] = test system: RXF 393; experiment: Growth inhibition of Homo sapiens (human) RXF393 cells at 10 uM after 48 hr by SRB assay; settings: RXF 393, 48 h, read-out: GI
[3] = test system: SN12C; experiment: Growth inhibition of Homo sapiens (human) SN12C cells at 10 uM after 48 hr by SRB assay; settings: read-out: GI
[4] = test system: MDA-MB-435; experiment: Anticancer activity against Homo sapiens (human) MDA-MB-435 cells after 48 hr by SRB assay; settings: MDA-MB-435, 48 h
[5] = test system: K562; experiment: Anticancer activity against Homo sapiens (human) K562 cells after 48 hr by SRB assay; settings: K562, 48 h
[6] = test system: LOX IMVI; experiment: Growth inhibition of Homo sapiens (human) LOXIMVI cells at 10 uM after 48 hr by SRB assay; settings: read-out: GI
[7] = test system: NCI-H322M; experiment: Anticancer activity against Homo sapiens (human) NCI-H322M cells after 48 hr by SRB assay
[8] = test system: HOP-62; experiment: Growth inhibition of Homo sapiens (human) HOP62 cells at 10 uM after 48 hr by SRB assay; settings: HOP-62, 48 h, read-out: GI
[9] = test system: NCI-H322M; experiment: Growth inhibition of Homo sapiens (human) NCI-H322M cells at 10 uM after 48 hr by SRB assay; settings: read-out: GI
[10] = test system: NCI-H23; experiment: Growth inhibition of Homo sapiens (human) NCI-H23 cells at 10 uM after 48 hr by SRB assay; settings: NCI-H23, 48 h, read-out: GI
[11] = test system: 786-0; experiment: Growth inhibition of Homo sapiens (human) 786-0 cells at 10 uM after 48 hr by SRB assay; settings: 786-0, 48 h, read-out: GI
[12] = test system: NCI/ADR-RES; experiment: Growth inhibition of Homo sapiens (human) NCI/ADR-RES cells at 10 uM after 48 hr by SRB assay; settings: read-out: GI
[13] = test system: MDA-MB-231; experiment: Anticancer activity against Homo sapiens (human) MDA-MB-231/ATCC cells after 48 hr by SRB assay; settings: MDA-MB-231, 48 h
[14] = test system: NCI-H226; experiment: Anticancer activity against Homo sapiens (human) NCI-H226 cells after 48 hr by SRB assay; settings: NCI-H226, 48 h
[15] = test system: Hs-578T; experiment: Growth inhibition of Homo sapiens (human) Hs 578T cells at 10 uM after 48 hr by SRB assay; settings: read-out: GI
[16] = test system: IGROV-1; experiment: Anticancer activity against Homo sapiens (human) IGROV1 cells after 48 hr by SRB assay; settings: IGROV-1, 48 h
[17] = test system: SR; experiment: Anticancer activity against Homo sapiens (human) SR cells after 48 hr by SRB assay
[18] = test system: SNB-19; experiment: Anticancer activity against Homo sapiens (human) SNB19 cells after 48 hr by SRB assay; settings: SNB-19, 48 h
[19] = test system: SF-268; experiment: Growth inhibition of Homo sapiens (human) SF268 cells at 10 uM after 48 hr by SRB assay; settings: SF-268, 48 h, read-out: GI
[20] = test system: A549; experiment: Anticancer activity against Homo sapiens (human) A549/ATCC cells after 48 hr by SRB assay; settings: A549, 48 h
[21] = test system: SK-MEL-28; experiment: Growth inhibition of Homo sapiens (human) SK-MEL-28 cells at 10 uM after 48 hr by SRB assay; settings: SK-MEL-28, 48 h, read-out: GI
[22] = test system: HOP-62; experiment: Anticancer activity against Homo sapiens (human) HOP62 cells after 48 hr by SRB assay; settings: HOP-62, 48 h
[23] = test system: MDA-MB-468; experiment: Anticancer activity against Homo sapiens (human) MDA-MB-468 cells after 48 hr by SRB assay; settings: MDA-MB-468, 48 h
[24] = test system: BT-549; experiment: Growth inhibition of Homo sapiens (human) BT549 cells at 10 uM after 48 hr by SRB assay; settings: BT-549, 48 h, read-out: GI
[25] = test system: Pseudomonas aeruginosa; experiment: Antimicrobial activity against Pseudomonas aeruginosa ATCC9027 assessed as diameter of growth inhibition zone at 1 mg/ml after 24 hr by agar cup diffusion method; settings: ATCC9027, 24 h, read-out: IZ
[26] = test system: SK-MEL-2; experiment: Growth inhibition of Homo sapiens (human) SK-MEL-2 cells at 10 uM after 48 hr by SRB assay; settings: SK-MEL-2, 48 h, read-out: GI
[27] = test system: T47D; experiment: Growth inhibition of Homo sapiens (human) T47D cells at 10 uM after 48 hr by SRB assay; settings: read-out: GI
[28] = test system: MOLT-4; experiment: Anticancer activity against Homo sapiens (human) MOLT4 cells after 48 hr by SRB assay; settings: MOLT-4, 48 h
[29] = test system: ACHN; experiment: Anticancer activity against Homo sapiens (human) ACHN cells after 48 hr by SRB assay
[30] = test system: SNB-75; experiment: Growth inhibition of Homo sapiens (human) SNB75 cells at 10 uM after 48 hr by SRB assay; settings: SNB-75, 48 h, read-out: GI
[31] = test system: SF-539; experiment: Anticancer activity against Homo sapiens (human) SF539 cells after 48 hr by SRB assay; settings: SF-539, 48 h
[32] = test system: SF-295; experiment: Anticancer activity against Homo sapiens (human) SF295 cells after 48 hr by SRB assay; settings: SF-295, 48 h
[33] = test system: MCF7; experiment: Growth inhibition of Homo sapiens (human) MCF7 cells at 10 uM after 48 hr by SRB assay; settings: MCF7, 48 h, read-out: GI
[34] = test system: Candida albicans; experiment: Antimicrobial activity against Candida albicans ATCC2091 assessed as diameter of growth inhibition zone at 1 mg/ml after 48 hr by agar cup diffusion method; settings: ATCC2091, 48 h, read-out: IZ
[35] = read-out: LC50 (the source's name)

`Cc1c(C(N)=O)sc2nc(C)n(/N=c3\scc(-c4ccccc4)n3Cc3ccccc3)c(=O)c12` showed an inhibition of growth at 10 µM [1] of 57.9%, an inhibition of growth at 10 µM [2] of 105% and an inhibition of growth at 10 µM [3] of 52.3%. The GI50 [4] was 2.89 µM, the TGI [4] was 12.5 µM and the CC50 [4, 35] was > 100 µM. The GI50 [5] was 8.89 µM, the TGI [5] was > 100 µM and the CC50 [5, 35] was > 100 µM. The inhibition of growth at 10 µM [6] was 79.4%, the GI50 [7] was 3.71 µM and the TGI [7] was > 100 µM. The CC50 [7, 35] was > 100 µM, the inhibition of growth at 10 µM [8] was 75.8% and the inhibition of growth at 10 µM [9] was 64.6%. It also gave an inhibition of growth at 10 µM [10] of 79.5%, an inhibition of growth at 10 µM [11] of 49.3% and an inhibition of growth at 10 µM [12] of 81.1%. For the same molecule, the GI50 [13] was 3.28 µM, the TGI [13] was 8.41 µM and the CC50 [13, 35] was > 100 µM. For the same molecule, the GI50 [14] was 3.72 µM, the TGI [14] was 67.9 µM and the CC50 [14, 35] was > 100 µM. The inhibition of growth at 10 µM [15] was 115%, the GI50 [16] was 1.43 µM and the TGI [16] was 6.31 µM. For the same molecule, the CC50 [16, 35] was > 100 µM, the GI50 [17] was 5.74 µM and the TGI [17] was > 100 µM. The CC50 [17, 35] was > 100 µM, the GI50 [18] was 4.8 µM and the TGI [18] was > 100 µM. The CC50 [18, 35] was > 100 µM, the inhibition of growth at 10 µM [19] was 78.7% and the GI50 [20] was 3.79 µM. For the same molecule, the TGI [20] was > 100 µM, the CC50 [20, 35] was > 100 µM and the inhibition of growth at 10 µM [21] was 51.8%. For the same molecule, the GI50 [22] was 2.82 µM, the TGI [22] was 9.47 µM and the CC50 [22, 35] was > 100 µM. For the same molecule, the GI50 [23] was 2.65 µM, the TGI [23] was > 100 µM and the CC50 [23, 35] was > 100 µM. The inhibition of growth at 10 µM [24] was 107%, the zone of inhibition at 1000 µg/mL [25] was 17 mm and the inhibition of growth at 10 µM [26] was 90%. For the same molecule, the inhibition of growth at 10 µM [27] was 65.3%, the GI50 [28] was 24.6 µM and the TGI [28] was > 100 µM. The CC50 [28, 35] was > 100 µM, the GI50 [29] was 2.86 µM and the TGI [29] was > 100 µM. For the same molecule, the CC50 [29, 35] was > 100 µM, the inhibition of growth at 10 µM [30] was 45.2% and the GI50 [31] was 4.02 µM. For the same molecule, the TGI [31] was > 100 µM, the CC50 [31, 35] was > 100 µM and the GI50 [32] was 2.93 µM. The TGI [32] was > 100 µM, the CC50 [32, 35] was > 100 µM and the inhibition of growth at 10 µM [33] was 82.7%. The zone of inhibition at 1000 µg/mL [34] was 17 mm.

— ChEMBL document CHEMBL3046848, “Synthesis and biological evaluation of novel series of thieno[2,3-d]pyrimidine derivatives as anticancer and antimicrobial agents” (2013)
